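Assay format: 96-well plates, 48-hour exposure. GI50 = concentration required for 50% inhibition of growth.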 Active and inactive are the calls of the source. Cut-off read from the data, not from the text of the source: active = GI50 up to about 1.1 µM and inactive = higher.
Legend:
Test in all cases: NCI anticancer screen, dose series, 48 h
MDA-MB-435 = tested on: MDA-MB-435
MDA-N = tested on: MDA-N
IGROV-1 = tested on: IGROV-1
EKVX = tested on: EKVX
SK-MEL-28 = tested on: SK-MEL-28
OVCAR-4 = tested on: OVCAR-4
HCC 2998 = tested on: HCC 2998
RPMI-8226 = tested on: RPMI-8226
Malme-3M = tested on: Malme-3M
CAKI-1 = tested on: CAKI-1
SN12C = tested on: SN12C
HCT-116 = tested on: HCT-116
UACC-257 = tested on: UACC-257
SF-295 = tested on: SF-295
TK-10 = tested on: TK-10
NCI-H23 = tested on: NCI-H23
UACC-62 = tested on: UACC-62
MCF7 = tested on: MCF7
MDA-MB-231 = tested on: MDA-MB-231
HOP-92 = tested on: HOP-92
SNB-75 = tested on: SNB-75
OVCAR-8 = tested on: OVCAR-8
T47D = tested on: T47D
KM12 = tested on: KM12
SW-620 = tested on: SW-620
OVCAR-3 = tested on: OVCAR-3
U-251 = tested on: U-251
K562 = tested on: K562
HT-29 = tested on: HT-29
M14 = tested on: M14
NCI-H460 = tested on: NCI-H460
A498 = tested on: A498
SK-OV-3 = tested on: SK-OV-3
SF-539 = tested on: SF-539
RXF 393 = tested on: RXF 393
HL-60 = tested on: HL-60
SF-268 = tested on: SF-268
SNB-19 = tested on: SNB-19
UO-31 = tested on: UO-31
SK-MEL-5 = tested on: SK-MEL-5
LOX IMVI = tested on: LOX IMVI
786-0 = tested on: 786-0
NCI/ADR-RES = tested on: NCI/ADR-RES
ACHN = tested on: ACHN
SK-MEL-2 = tested on: SK-MEL-2
CCRF-CEM = tested on: CCRF-CEM
MOLT-4 = tested on: MOLT-4
OVCAR-5 = tested on: OVCAR-5
NCI-H522 = tested on: NCI-H522
BT-549 = tested on: BT-549
DU-145 = tested on: DU-145
HCT-15 = tested on: HCT-15
PC-3 = tested on: PC-3
A549 = tested on: A549
COLO 205 = tested on: COLO 205
HOP-62 = tested on: HOP-62
NCI-H226 = tested on: NCI-H226
SR = tested on: SR

COc1cc(/C=c2/c3ccccc3n3c2cc(-c2ccccc2)[n+]3C)cc(OC)c1OC
GI50 (MDA-MB-435): 2.51 µM (inactive)
GI50 (MDA-N): 4.04 µM (inactive)
GI50 (IGROV-1): 6.19 µM (inactive)
GI50 (EKVX): 5.15 µM (inactive)
GI50 (SK-MEL-28): 5.78 µM (inactive)
GI50 (OVCAR-4): 3.46 µM (inactive)
GI50 (HCC 2998): 6.22 µM (inactive)
GI50 (RPMI-8226): 2.55 µM (inactive)
GI50 (Malme-3M): 2.19 µM (inactive)
GI50 (CAKI-1): 3.92 µM (inactive)
GI50 (SN12C): 2.82 µM (inactive)
GI50 (HCT-116): 2.62 µM (inactive)
GI50 (UACC-257): 2.44 µM (inactive)
GI50 (SF-295): 5.64 µM (inactive)
GI50 (TK-10): 5.33 µM (inactive)
GI50 (NCI-H23): 3.94 µM (inactive)
GI50 (UACC-62): 3.69 µM (inactive)
GI50 (MCF7): 4.54 µM (inactive)
GI50 (MDA-MB-231): 4.06 µM (inactive)
GI50 (HOP-92): 3.48 µM (inactive)
GI50 (SNB-75): 4.01 µM (inactive)
GI50 (OVCAR-8): 3.33 µM (inactive)
GI50 (T47D): 4.06 µM (inactive)
GI50 (KM12): 1.91 µM (inactive)
GI50 (SW-620): 3.82 µM (inactive)
GI50 (OVCAR-3): 2.43 µM (inactive)
GI50 (U-251): 3.7 µM (inactive)
GI50 (K562): 2.74 µM (inactive)
GI50 (HT-29): 3.07 µM (inactive)
GI50 (M14): 4.95 µM (inactive)
GI50 (NCI-H460): 4.58 µM (inactive)
GI50 (A498): 16 µM (inactive)
GI50 (SK-OV-3): 5.92 µM (inactive)
GI50 (SF-539): 2.86 µM (inactive)
GI50 (RXF 393): 2.74 µM (inactive)
GI50 (HL-60): 2.39 µM (inactive)
GI50 (SF-268): 6.73 µM (inactive)
GI50 (SNB-19): 5.48 µM (inactive)
GI50 (UO-31): 5.12 µM (inactive)
GI50 (SK-MEL-5): 2.69 µM (inactive)
GI50 (LOX IMVI): 3.69 µM (inactive)
GI50 (786-0): 4.06 µM (inactive)
GI50 (NCI/ADR-RES): > 100 µM (inactive)
GI50 (ACHN): 4.07 µM (inactive)
GI50 (SK-MEL-2): 2.58 µM (inactive)
GI50 (CCRF-CEM): 3.52 µM (inactive)
GI50 (MOLT-4): 2.97 µM (inactive)
GI50 (OVCAR-5): 4.85 µM (inactive)
GI50 (NCI-H522): 2.93 µM (inactive)
GI50 (BT-549): 3.78 µM (inactive)
GI50 (DU-145): 5.47 µM (inactive)
GI50 (HCT-15): 4.39 µM
GI50 (PC-3): 3.74 µM (inactive)
GI50 (A549): 4.18 µM (inactive)
GI50 (COLO 205): 1.69 µM (inactive)
GI50 (HOP-62): 5.47 µM (inactive)
GI50 (NCI-H226): 7.94 µM (inactive)

CC(=O)O[C@H]1C(=O)[C@@]2(C)C(C(OC(=O)c3ccccc3)[C@]3(O)CC(OC(=O)C(O)C(NC(=O)c4ccccc4)c4cccc(Cl)c4)C(C)=C1C3(C)C)[C@]1(OC(C)=O)CO[C@@H]1C[C@@H]2O (stereo not given in full)
GI50 (MDA-MB-435): 1.55 µM (inactive)
GI50 (MDA-N): 0.984 µM (active)
GI50 (IGROV-1): 3.88 µM (inactive)
GI50 (EKVX): 7.23 µM (inactive)
GI50 (OVCAR-4): > 10 µM (inactive)
GI50 (HCC 2998): 4.67 µM (inactive)
GI50 (RPMI-8226): 2.21 µM (inactive)
GI50 (Malme-3M): > 10 µM (inactive)
GI50 (CAKI-1): > 10 µM (inactive)
GI50 (SN12C): 4.17 µM (inactive)
GI50 (HCT-116): 2.88 µM (inactive)
GI50 (UACC-257): 9.46 µM (inactive)
GI50 (SF-295): > 10 µM (inactive)
GI50 (SR): 1.47 µM (inactive)
GI50 (TK-10): > 10 µM (inactive)
GI50 (NCI-H23): 4.39 µM (inactive)
GI50 (UACC-62): 2.33 µM (inactive)
GI50 (MCF7): 3.06 µM (inactive)
GI50 (MDA-MB-231): > 10 µM (inactive)
GI50 (SNB-75): 2.62 µM (inactive)
GI50 (OVCAR-8): 5.92 µM (inactive)
GI50 (T47D): 8.15 µM (inactive)
GI50 (KM12): 3.72 µM (inactive)
GI50 (SW-620): 6.47 µM (inactive)
GI50 (OVCAR-3): 4.18 µM (inactive)
GI50 (U-251): 4.95 µM (inactive)
GI50 (K562): 4.94 µM (inactive)
GI50 (HT-29): 2.46 µM (inactive)
GI50 (M14): > 10 µM (inactive)
GI50 (NCI-H460): 5.28 µM (inactive)
GI50 (SK-OV-3): > 10 µM (inactive)
GI50 (SF-539): 3.24 µM (inactive)
GI50 (HL-60): 1.38 µM (inactive)
GI50 (SF-268): 7.26 µM (inactive)
GI50 (SNB-19): > 10 µM (inactive)
GI50 (SK-MEL-5): 5.94 µM (inactive)
GI50 (LOX IMVI): 4.29 µM (inactive)
GI50 (786-0): > 10 µM (inactive)
GI50 (NCI/ADR-RES): > 10 µM (inactive)
GI50 (ACHN): > 10 µM (inactive)
GI50 (SK-MEL-2): 3.39 µM (inactive)
GI50 (CCRF-CEM): 2.62 µM (inactive)
GI50 (MOLT-4): 4.8 µM (inactive)
GI50 (OVCAR-5): 4.15 µM (inactive)
GI50 (NCI-H522): 3.18 µM (inactive)
GI50 (BT-549): > 10 µM (inactive)
GI50 (DU-145): 3.57 µM (inactive)
GI50 (HCT-15): > 10 µM
GI50 (PC-3): 7.11 µM (inactive)
GI50 (A549): 7.64 µM (inactive)
GI50 (COLO 205): 3.1 µM (inactive)
GI50 (HOP-62): 7.01 µM (inactive)
GI50 (NCI-H226): > 10 µM (inactive)
